We go through one substance from US6951652B2, “Vaccine for prevention of gram-negative bacterial infections and endotoxin related diseases” (BioSynth S.r.l., priority 1998, dated 2005).

A short description of the assay: In vitro saturation of lipid A binding site by peptide. The settings on record: stoichiometric saturation.

Ends that are not written are not given here.

“Lys-Thr-Lys-Cys-Lys-Phe-Leu-Lys-Lys-Cys (KTKCKFLKKC; also: cyclic, ring type not given here) [SAEP2]”: the “affinity of binding to lipid A binding site” value was “high affinity”.
